According to ChEMBL document CHEMBL4196117, “PK/PD Disconnect Observed with a Reversible Endothelial Lipase Inhibitor” (ACS Med Chem Lett, 2018):
Active and inactive are the calls of the source. The rule behind the calls is not given here.

What was measured:
Endothelial lipase [1] = molecular target: T1, Endothelial lipase (Homo sapiens, UniProt Q9Y5X9); assay: Inhibition of endothelial lipase in human HT1080 cells using HDL as substrate pretreated for 10 mins followed by substrate addition and measured after 30 mins by LC/MS/MS analysis; type: cell-based
T1 sequence (Q9Y5X9 whole entry): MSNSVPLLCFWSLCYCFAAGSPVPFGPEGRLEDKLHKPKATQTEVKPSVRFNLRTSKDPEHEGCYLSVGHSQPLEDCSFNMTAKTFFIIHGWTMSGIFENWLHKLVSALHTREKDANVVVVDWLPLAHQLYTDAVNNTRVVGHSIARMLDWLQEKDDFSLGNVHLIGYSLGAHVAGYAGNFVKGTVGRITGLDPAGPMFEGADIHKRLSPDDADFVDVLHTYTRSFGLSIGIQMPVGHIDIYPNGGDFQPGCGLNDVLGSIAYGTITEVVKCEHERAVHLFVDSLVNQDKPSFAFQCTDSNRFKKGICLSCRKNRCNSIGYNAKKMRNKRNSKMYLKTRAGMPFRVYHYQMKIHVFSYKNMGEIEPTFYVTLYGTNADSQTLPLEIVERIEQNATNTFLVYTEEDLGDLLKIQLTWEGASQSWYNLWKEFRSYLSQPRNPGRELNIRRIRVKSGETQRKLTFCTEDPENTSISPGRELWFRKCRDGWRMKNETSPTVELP

Endothelial lipase [2] = molecular target: T1, Endothelial lipase; assay: Inhibition of endothelial lipase in human HT1080 cells using PED-A1 containing DMPG vesicles as substrate pretreated for 20 mins followed by substrate addition and measured every 20 secs for 10 mins by fluorescence assay; type: cell-based
[3] = molecular target: T2, Endothelial lipase (Homo sapiens) (UniProt Q9Y5X9); assay: Ratio of IC50 for endothelial lipase in human HT1080 cells using HDL as substrate to IC50 for endothelial lipase in human HT1080 cells using PED-A1 containing DMPG vesicles as substrate; type: cell-based
T2 sequence (whole entry): T1 sequence (Q9Y5X9 whole entry)

Homo sapiens [4] = organism: Homo sapiens; assay: Selectivity ratio of IC50 for recombinant human PL expressed in HEK293F cells to IC50 for endothelial lipase in human HT1080 cells using PED-A1 containing DMPG vesicles as substrate; type: cell-based
Homo sapiens [5] = organism: Homo sapiens; assay: Selectivity ratio of IC50 for recombinant human LPL expressed in African green monkey COS7 cells to IC50 for endothelial lipase in human HT1080 cells using PED-A1 containing DMPG vesicles as substrate; type: cell-based
[6] = molecular target: T3, Endothelial lipase (Mus musculus) (UniProt Q9WVG5); assay: Competitive inhibition of recombinant mouse endothelial lipase expressed in HEK293F cells using varying levels of HDL as substrate pretreated for 10 mins followed by substrate addition and measured after 30 mins by LC/MS/MS analysis
T3 sequence (whole entry): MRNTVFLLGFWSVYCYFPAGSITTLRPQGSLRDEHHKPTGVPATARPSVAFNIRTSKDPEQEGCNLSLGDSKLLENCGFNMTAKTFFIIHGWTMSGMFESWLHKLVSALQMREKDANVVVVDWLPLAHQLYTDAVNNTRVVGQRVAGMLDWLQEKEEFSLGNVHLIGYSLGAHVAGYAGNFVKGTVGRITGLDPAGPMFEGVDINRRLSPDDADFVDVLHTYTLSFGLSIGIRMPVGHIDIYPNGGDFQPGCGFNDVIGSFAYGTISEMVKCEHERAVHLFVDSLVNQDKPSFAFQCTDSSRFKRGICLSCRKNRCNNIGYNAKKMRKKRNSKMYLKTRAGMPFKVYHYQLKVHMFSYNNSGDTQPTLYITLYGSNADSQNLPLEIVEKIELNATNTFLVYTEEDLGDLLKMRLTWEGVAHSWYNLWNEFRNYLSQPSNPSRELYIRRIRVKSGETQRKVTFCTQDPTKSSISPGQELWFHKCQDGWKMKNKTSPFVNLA

Mus musculus = assay: Effect on plasma HDL-C level in C57BL/6J mouse at 10 to 50 mg/kg, po qd for 5 days measured at 1 day for 5 days; type: functional, organism-based
[7] = molecular target: T2, Endothelial lipase (Homo sapiens); assay: Competitive inhibition of endothelial lipase in human HT1080 cells using varying level of HDL as substrate pretreated for 10 mins followed by substrate addition and measured after 30 mins by LC/MS/MS analysis; type: cell-based
Homo sapiens [8] = organism: Homo sapiens; assay: Selectivity ratio of IC50 for MAGL (unknown origin) to IC50 for endothelial lipase in human HT1080 cells using PED-A1 containing DMPG vesicles as substrate; type: cell-based
Homo sapiens [9] = organism: Homo sapiens; assay: Selectivity ratio of IC50 for recombinant human HL expressed in African green monkey COS7 cells using HDL as substrate to IC50 for endothelial lipase in human HT1080 cells using HDL as substrate; type: cell-based
[10] = Cmax in CD1 mouse at 1 mg/kg, po administered as bolus dose; type: ADME, organism-based; design: dose 1 mg/kg, route oral; settings: in vivo
[11] = Half life in CD1 mouse at 1 mg/kg, iv administered as bolus dose; type: ADME, organism-based; settings: in vivo
[12] = Dissociation constant, pKa of the compound; type: physicochemical
[13] = Total AUC in CD1 mouse at 1 mg/kg, iv administered as bolus dose; type: ADME, organism-based; design: dose 1 mg/kg, time AUCmax, route intravenous; settings: in vivo
[14] = molecular target: T2, Endothelial lipase (Homo sapiens); assay: Reversible inhibition of endothelial lipase in human HT1080 cells at 2 uM using PED-A1 containing DMPG vesicles as substrate pretreated for 20 mins followed by compound washout prior to substrate addition and measured every 20 secs for 10 mins by fluorescence assay; type: cell-based
[15] = Half life in CD1 mouse at 1 mg/kg, po administered as bolus dose; type: ADME, organism-based; settings: in vivo
[16] = molecular target: T4, Hepatic triacylglycerol lipase (Homo sapiens, UniProt P11150); assay: Inhibition of recombinant human HL expressed in African green monkey COS7 cells using HDL as substrate pretreated for 10 mins followed by substrate addition and measured after 30 mins by LC/MS/MS analysis
T4 sequence (P11150 whole entry): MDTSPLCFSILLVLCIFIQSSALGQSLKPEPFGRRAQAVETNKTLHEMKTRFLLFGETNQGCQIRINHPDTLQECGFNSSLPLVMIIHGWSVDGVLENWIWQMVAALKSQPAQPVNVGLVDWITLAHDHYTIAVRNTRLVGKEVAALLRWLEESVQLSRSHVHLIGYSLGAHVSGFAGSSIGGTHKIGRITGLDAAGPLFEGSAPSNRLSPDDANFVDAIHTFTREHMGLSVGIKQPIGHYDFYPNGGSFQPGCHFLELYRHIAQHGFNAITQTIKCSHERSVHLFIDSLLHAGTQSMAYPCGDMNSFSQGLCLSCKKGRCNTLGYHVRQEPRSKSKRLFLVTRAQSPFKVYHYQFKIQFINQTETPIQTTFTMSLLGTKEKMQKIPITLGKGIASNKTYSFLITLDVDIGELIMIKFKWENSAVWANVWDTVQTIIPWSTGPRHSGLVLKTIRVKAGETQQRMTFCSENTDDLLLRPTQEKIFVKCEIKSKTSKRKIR

Lipoprotein lipase = molecular target: T5, Lipoprotein lipase (Homo sapiens, UniProt P06858); assay: Inhibition of recombinant human LPL expressed in African green monkey COS7 cells using DGGR/DMPG vesicles as substrate pretreated for 10 mins followed by substrate addition and measured for 5 mins
T5 sequence (P06858 whole entry): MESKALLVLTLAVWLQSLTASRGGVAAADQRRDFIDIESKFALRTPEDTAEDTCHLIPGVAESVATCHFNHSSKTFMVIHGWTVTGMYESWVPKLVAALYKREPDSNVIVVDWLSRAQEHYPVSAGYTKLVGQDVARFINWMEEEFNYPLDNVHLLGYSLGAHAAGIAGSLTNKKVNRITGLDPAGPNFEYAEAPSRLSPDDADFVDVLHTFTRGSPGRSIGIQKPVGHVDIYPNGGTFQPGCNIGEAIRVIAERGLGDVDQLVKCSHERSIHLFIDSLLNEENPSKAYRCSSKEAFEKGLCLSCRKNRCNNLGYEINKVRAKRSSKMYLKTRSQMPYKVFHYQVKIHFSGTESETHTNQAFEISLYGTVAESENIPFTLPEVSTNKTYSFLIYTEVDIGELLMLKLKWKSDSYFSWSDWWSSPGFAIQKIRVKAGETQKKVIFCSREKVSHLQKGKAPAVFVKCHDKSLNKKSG

[17] = Cmax in CD1 mouse at 1 mg/kg, iv administered as bolus dose; type: ADME, organism-based; design: dose 1 mg/kg, route intravenous; settings: in vivo
[18] = Oral bioavailability in CD1 mouse at 1 mg/kg administered as bolus dose; type: ADME, organism-based; settings: in vivo
[19] = Clearance in CD1 mouse at 1 mg/kg, iv administered as bolus dose; type: ADME, organism-based; settings: in vivo
[20] = Total AUC in CD1 mouse at 1 mg/kg, po administered as bolus dose; type: ADME, organism-based; design: dose 1 mg/kg, route oral, time AUCmax; settings: in vivo

Structure (SMILES)	IC50 (Endothelial lipase [1]) [nM]	IC50 (Endothelial lipase [2]) [nM]	Ratio IC50 [3]	further results
CCN1CC(C(=O)NC(C)CCc2ccc(Cl)c(Cl)c2)=C(O)C1=O (stereo in doubt; 7c)				Ratio IC50 (Homo sapiens [4]): > 250; Ratio IC50 (Homo sapiens [5]): > 250; inhibition [6]: inactive; Activity (Mus musculus): inactive; inhibition [7]: inactive; Ratio IC50 (Homo sapiens [8]): > 250; Ratio IC50 (Homo sapiens [9]): 12
CS(=O)(=O)NC(=O)CCN1CC(C(=O)NCCCc2ccc(Cl)c(Cl)c2)=C(O)C1=O	1050	95	11 to 150	
CCN1CC(C(=O)NCCCc2ccc(Cl)c(Cl)c2)=C(NCCc2ccncc2)C1=O	5990	59	> 50	
O=C(NCCCc1ccc(Cl)c(Cl)c1)C1=C(O)C(=O)N(CCOc2ccccc2)C1	826		11 to 150	
O=C(NCCCc1ccc(Cl)c(Cl)c1)C1=C(O)C(=O)N(CCN2CCOCC2)C1		190		
Cn1ccc(C(=O)NCCCc2ccc(Cl)c(Cl)c2)c(O)c1=O		61		Cmax [10]: 2 µM; half-life [11]: 4.9 h; pKa [12]: 6.5; AUC [13]: 19 µM·h; inhibition [14]: Active; half-life [15]: 2.9 h; IC50 [16]: 16 nM; IC50 (Lipoprotein lipase): > 90000 nM; Cmax [17]: 25 µM; bioavailability [18]: 82%; clearance [19]: 2.5 mL/min/kg; AUC [20]: 16 µM·h
CN1C(=O)C(O)=C(C(=O)NCCCc2ccc(Cl)c(Cl)c2)C1C1CC1 (centres undefined)	5290	88	60 to 100	
CN1CC(C(=O)NCCCc2ccccc2)=C(O)C1=O		5830		
CN1CC(C(=O)NCCc2ccc(Cl)c(Cl)c2)=C(O)C1=O		296		
O=C(NCCCc1ccc(Cl)c(Cl)c1)C1=C(O)C(=O)N(Cc2ccccc2)C1			11 to 150	
CCN1CC(C(=O)NC(C)CCc2ccc(Cl)c(Cl)c2)=C(O)C1=O (stereo in doubt; 7d)	835	910		

More lines, main results first:

IC50 (Endothelial lipase [1]) [nM]	IC50 (Endothelial lipase [2]) [nM]	Ratio IC50 [3]	Structure (SMILES)	further results
264	44		CCN1CC(C(=O)NC(C)CCc2ccc(Cl)c(Cl)c2)=C(O)C1=O (racemic)	
4210	25	> 50	CCN1CC(C(=O)NCCCc2ccc(Cl)c(Cl)c2)=C(NCCCN2CCCCC2)C1=O	
2440	19	11 to 150	O=C(NCCCc1ccc(Cl)c(Cl)c1)C1=C(O)C(=O)N(CCCN2CCCC2=O)C1	
5750	59	60 to 100	CN1C(=O)C(O)=C(C(=O)NCCCc2ccc(Cl)c(Cl)c2)C1c1ccccc1Cl (centres undefined)	
3020	< 10	> 50	CCN1CC(C(=O)NCCCc2ccc(Cl)c(Cl)c2)=C(NC)C1=O	
3520	30	11 to 150	CCN1CC(C(=O)NCCCc2ccc(Cl)c(Cl)c2)=C(O)C1=O	
1770	29	60 to 100	CN1C(=O)C(O)=C(C(=O)NCCCc2ccc(Cl)c(Cl)c2)C1CC(C)(C)C (centres undefined)	
1760	41	11 to 150	CN1CC(C(=O)NCCCc2ccc(Cl)c(Cl)c2)=C(O)C1=O	Cmax [10]: 8.2 µM; half-life [11]: 3.4 h; pKa [12]: 4.8; AUC [13]: 24 µM·h; half-life [15]: 3.2 h; IC50 [16]: 76 nM; IC50 (Lipoprotein lipase): > 37000 nM; Cmax [17]: 32 µM; bioavailability [18]: 76%; clearance [19]: 2.1 mL/min/kg; AUC [20]: 18 µM·h
945	19	> 50	CCN1CC(C(=O)NCCCc2ccc(Cl)c(Cl)c2)=C(NCCOC(C)C)C1=O	
